The values below come from patent US7560466B2, “Methods of treating or preventing autoimmune diseases with 2,4-pyrimidinediamine compounds” (Rigel Pharmaceuticals, Inc., priority 2003, dated 2009).

Structures can show the parent of a compound that is named as a salt. Where two headings read alike, the source gives them in different places.

Assay [1] concerns cultured human mast cells (CHMC), IgE-induced degranulation. Description: CHMC low cell density IgE activation: tryptase assay. It counts as cell-based. As to conditions: low cell density CHMC. In outline:
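Tryptase release read fluorogenically (30 min, room temperature) from supernatants of anti-IgE-challenged cultured human mucosal mast cells derived from umbilical cord CD34+ cells, at low density of 1000–1500 cells/well.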

The test system of assay [2] is cultured human mast cells (CHMC), ionomycin-induced degranulation. Description: CHMC low cell density ionomycin activation: tryptase assay. The format is cell-based. As to conditions: low cell density CHMC, read-out: LD Tryptase, CHMC, Iono, 3pt.
Where [3] appears, read: 3-point, read-out: LD Tryptase, CHMC, IgE, 3pt.
Where [4] appears, read: 8-point, read-out: LD Tryptase, CHMC, IgE, 8pt.

In the case of `CCOC(=O)COc1c(C)cc(Nc2ncc(F)c(Nc3ccc4c(n3)NC(=O)C(C)(C)O4)n2)cc1Cl` [Compound 1042, N2-(3-Chloro-4-ethoxycarbonylmethyleneoxy-5-methylphenyl)-N4-(2,2-dimethyl-3-oxo-4H-5-pyrid[1,4]oxazin-6-yl)-5-fluoro-2,4-pyrimidinediamine], the IC50 in assay [1] (setting [3]) is greater than 10 µM; in assay [2] (ionomycin activation, 3-point), greater than 10 µM.

For `Cc1cc(Nc2ncc(F)c(Nc3ccc4c(n3)NC(=O)C(C)(C)O4)n2)cc(Cl)c1OCC(=O)NCC(O)CO` (centres unmarked) [Compound 1043, N2-[3-Chloro-4-[N-(2,3-dihydroxypropyl)amino]carbonylmethyleneoxy-5-methylphenyl]-N4-(2,2-dimethyl-3-oxo-4H-5-pyrid[1,4]oxazin-6-yl)-5-fluoro-2,4-pyrimidinediamine], the IC50 in assay [1] (setting [3]) is less than 10 µM; in assay [1] (setting [4]) it was less than 10 µM; in assay [2] (ionomycin activation, 3-point) it was greater than 10 µM.

`Cc1cc(Nc2ncc(F)c(Nc3ccc4c(n3)NC(=O)C(C)(C)O4)n2)cc(C)c1OCC(=O)NC1CCCC1` [Compound 1044, N2-[3,5-Dimethyl-4-(N-cyclopentylamino)carbonylmethyleneoxyphenyl]-N4-(2,2-dimethyl-3-oxo-4H-5-pyrid[1,4]oxazin-6-yl)-5-fluoro-2,4-pyrimidinediamine]: the IC50 in assay [1] (setting [3]) was greater than 10 µM; in assay [1] (setting [4]), greater than 10 µM; in assay [2] (ionomycin activation, 3-point), greater than 10 µM.

Turning to `CNC(=O)COc1cccc(Nc2ncc(F)c(Nc3ccc4c(c3)NC(=O)C(F)(F)O4)n2)c1` [Compound 1045, N4-(2,2-Difluoro-3-oxo-4H-benz[1,4]oxazin-6-yl)-5-fluoro-N2-[3-(N-methylamino)carbonylmethyleneoxyphenyl]-2,4-pyrimidinediamine Hydrogen Chloride Salt], the IC50 is less than 10 µM in assay [1] (setting [3]); less than 10 µM in assay [1] (setting [4]); greater than 10 µM in assay [2] (ionomycin activation, 3-point).

As for `CNC(=O)COc1cccc(Nc2ncc(F)c(Nc3ccc4c(c3)NC(=O)C(F)(F)O4)n2)c1` [Compound 1046, N4-(2,2-Difluoro-3-oxo-4H-benz[1,4]oxazin-6-yl)-5-fluoro-N2-[3-(N-methylamino)carbonylmethyleneoxyphenyl]-2,4-pyrimidinediamine Methanesulfonic Acid Salt], the IC50 was less than 10 µM in assay [1] (setting [3]); less than 10 µM in assay [1] (setting [4]); greater than 10 µM in assay [2] (ionomycin activation, 3-point).

For `CCn1ncc2ccc(Nc3ncc(F)c(Nc4ccc5c(n4)NC(=O)C(C)(C)O5)n3)cc21` [Compound 1049, N4-(2,2-Dimethyl-3-oxo-4H-5-pyrid[1,4]oxazin-6-yl)-N2-(1-ethylindazol-6-yl)-5-fluoro-2,4-pyrimidinediamine], the IC50 in assay [1] (setting [3]) is less than 10 µM; in assay [1] (setting [4]), less than 10 µM; in assay [2] (ionomycin activation, 3-point) it was greater than 10 µM.

For `CC(C)n1ncc2ccc(Nc3ncc(F)c(Nc4ccc5c(n4)NC(=O)C(C)(C)O5)n3)cc21` [Compound 1050, N4-(2,2-Dimethyl-3-oxo-4H-5-pyrid[1,4]oxazin-6-yl)-N2-(1-isopropylindazol-6-yl)-5-fluoro-2,4-pyrimidinediamine], the IC50 was less than 10 µM in assay [1] (setting [3]); less than 10 µM in assay [1] (setting [4]); greater than 10 µM in assay [2] (ionomycin activation, 3-point).

Turning to `CC1(C)CNc2nc(Nc3nc(Cl)ncc3F)ccc2O1` [Compound 1051, 2-Chloro-N4-(3,4-dihydro-2,2-dimethyl-4H-5-pyrid[1,4]oxazin-6-yl)-5-fluoro-4-pyrimidinea mine], the IC50 is greater than 10 µM in assay [1] (setting [3]) and greater than 10 µM in assay [2] (ionomycin activation, 3-point).

Regarding `Cn1ncc2ccc(Nc3ncc(F)c(Nc4ccc5c(n4)NCC(C)(C)O5)n3)cc21` [Compound 1052, N4-(3,4-Dihydro-2,2-dimethyl-4H-5-pyrid[1,4]oxazin-6-yl)-5-fluoro-N2-(1-methylindazol-6-yl)-2,4-pyrimidinediamine], the IC50 is less than 10 µM in assay [1] (setting [3]); less than 10 µM in assay [1] (setting [4]); less than 10 µM in assay [2] (ionomycin activation, 3-point).

Regarding `CNC(=O)COc1cccc(Nc2ncc(F)c(Nc3ccc4c(n3)NCC(C)(C)O4)n2)c1` [Compound 1053, N4-(3,4-Dihydro-2,2-dimethyl-4H-5-pyrid[1,4]oxazin-6-yl)-5-fluoro-N2-[3-(N-methylamino)carbonylmethyleneoxyphenyl]-2,4-pyrimidinediamine], the IC50 in assay [1] (setting [3]) was less than 10 µM; in assay [1] (setting [4]), less than 10 µM; in assay [2] (ionomycin activation, 3-point), greater than 10 µM.

`CNC(=O)c1ccc(Nc2ncc(F)c(Nc3ccc4c(n3)NC(=O)C(C)(C)O4)n2)cc1Cl` [Compound 1054, N2-[3-Chloro-4-(N-methylamino)carbonylphenyl]-N4-(2,2-dimethyl-3-oxo-4H-5-pyrid[1,4]oxazin-6-yl)-5-fluoro-2,4-pyrimidinediamine]: the IC50 in assay [1] (setting [3]) was less than 10 µM; in assay [1] (setting [4]) it was less than 10 µM; in assay [2] (ionomycin activation, 3-point) it was greater than 10 µM.

Take `CC1(C)Oc2ccc(Nc3nc(Nc4ccc5c(c4)OCCO5)ncc3F)nc2NC1=O` [Compound 1055, N4-(2,2-Dimethyl-3-oxo-4H-5-pyrid[1,4]oxazin-6-yl)-N2-(3,4-ethylenedioxyphenyl)-5-fluoro-2,4-pyrimidinediamine]: the IC50 in assay [1] (setting [3]) is less than 10 µM; in assay [1] (setting [4]) it was less than 10 µM; in assay [2] (ionomycin activation, 3-point), greater than 10 µM.

As to `Cn1ncc2ccc(Nc3ncc(F)c(Nc4ccc5c(n4)NC(=O)C(C)(C)O5)n3)cc21` [Compound 1057, N4-(2,2-Dimethyl-3-oxo-4H-5-pyrid[1,4]oxazin-6-yl)-5-fluoro-N2-[1-methylindazol-6-yl]-2,4-pyrimidinediamine p-Toluenesulfonic Acid Salt], the IC50 in assay [1] (setting [3]) is less than 10 µM; in assay [1] (setting [4]), less than 10 µM; in assay [2] (ionomycin activation, 3-point), greater than 10 µM.

For `C[C@@H]1Oc2ccc(Nc3nc(Nc4cc(C(C)(C)C)[nH]n4)ncc3F)nc2NC1=O` [Compound 1092, (S)—N2-(5-tert-Butyl-1H-pyrazol-3-yl)-5-fluoro-N4-(2-methyl-3-oxo-2H,4H-5-pyrid[1,4]oxazin-6-yl)-2,4-pyrimidinediamine], the IC50 in assay [1] (setting [3]) was less than 10 µM; in assay [1] (setting [4]) it was less than 10 µM; in assay [2] (ionomycin activation, 3-point), greater than 10 µM.

For the compound `Fc1cnc(Cl)nc1Nc1ccc2c(n1)NCCO2` [Compound 1117, 2-Chloro-5-fluoro-N4-(3,4-dihydro-2H,4H-5-pyrid[1,4]oxazin-6-yl)-4-pyrimidineamine], the IC50 in assay [1] (setting [3]) was greater than 10 µM; in assay [2] (ionomycin activation, 3-point), greater than 10 µM.

For the compound `Fc1cnc(Nc2ccc(N3CCOCC3)cc2)nc1Nc1ccc2c(n1)NCCO2` [Compound 1128, N4-(3,4-Dihydro-2H,4H-5-pyrid[1,4]oxazin-6-yl)-5-fluoro-N2-(4-morpholinophenyl)-2,4-pyrimidinediamine], the IC50 in assay [1] (setting [4]) was less than 10 µM; in assay [2] (ionomycin activation, 3-point) it was greater than 10 µM.

On to `CN1CCN(c2ccc(Nc3ncc(F)c(Nc4ccc5c(n4)NCCO5)n3)cc2)CC1` [Compound 1141, N4-(3,4-Dihydro-2H,4H-5-pyrid[1,4]oxazin-6-yl)-5-fluoro-N2-[4-(4-methylpiperazino)phenyl]-2,4-pyrimidinediamine], for which the IC50 was less than 10 µM in assay [1] (setting [3]); less than 10 µM in assay [1] (setting [4]); greater than 10 µM in assay [2] (ionomycin activation, 3-point).

Consider `CN1CCN(c2cccc(Nc3ncc(F)c(Nc4ccc5c(n4)NCCO5)n3)c2)CC1` [Compound 1142, N4-(3,4-Dihydro-2H,4H-5-pyrid[1,4]oxazin-6-yl)-5-fluoro-N2-[3-(4-methylpiperazino)phenyl]-2,4-pyrimidinediamine], for which the IC50 in assay [1] (3pt, read-out: LD Tryptase, CHMC, IgE, 3pt) is less than 10 µM; in assay [1] (8pt, read-out: LD Tryptase, CHMC, IgE, 8pt), less than 10 µM; in assay [2] (ionomycin activation (2 μM final), 3pt), greater than 10 µM.
